This passage reports Emax and EC50 results from US10988523B2, “Modified lipidated Relaxin B chain peptides and their therapeutic use” (Sanofi, priority 2018, dated 2021).

Each structure is given as a SMILES string. *1 amine or outer side, *2 acyl side, *3 side chain or, on linkers, in order; H or OH if unused. Where a SMILES comes first, the peptide text is derived from it. Side-chain parts run from the residue outwards. [ ]: non-standard residue; d: D form. The star is where a group is joined. X11 = CCCCCCCCCCCCCCCC(=O)N[C@@H](CCC(=O)NCCCC[C@H](NC(=O)CC[C@H](NC(=O)CC[C@H](NC(=O)CC[C@H](NC(=O)CCC(=O)NCCCOCCOCCOCCCNC(=O)CCC(=O)NCCCOCCOCCOCCCNC(=O)CCC(=O)NCCCOCCOCCOCCCN*)C(=O)O)C(=O)O)C(=O)O)C(N)=O)C(=O)O; X15 = CCCCCCCCCCCCCCCCCC(=O)N[C@@H](CCC(=O)N[C@@H](CCC(=O)N[C@@H](CCC(=O)NCCCOCCOCCOCCCNC(=O)COCC(=O)NCCCOCCOCCOCCCNC(=O)COCC(=O)NCCCOCCOCCOCCCNC(=O)COCC(=O)*)C(=O)O)C(=O)O)C(=O)O; Lys(Me3) = C[N+](C)(C)CCCC[C@H](N)C(=O)O; γGlu = O=C(O)[C@H](CCC(=O)[*:2])N[*:1]; Arg(Me) = CNC(=N)NCCC[C@H](N)C(=O)O; Stearoyl = CCCCCCCCCCCCCCCCCC(=O)*; Palmitoyl = CCCCCCCCCCCCCCCC(=O)*; αMeK = C[C@](N)(CCCCN)C(=O)O; Nle = CCCC[C@H](N)C(=O)O; AEEA = NCCOCCOCC(=O)O; Aib = CC(C)(N)C(=O)O

This assay addresses T1, RXFP1 (Homo sapiens, UniProt Q9HBX9).
T1 construct: OVCAR5 cells expressing endogenous RXFP1; endogenous in cells; host or cells: OVCAR5 cells
T1 sequence (Q9HBX9 1-757): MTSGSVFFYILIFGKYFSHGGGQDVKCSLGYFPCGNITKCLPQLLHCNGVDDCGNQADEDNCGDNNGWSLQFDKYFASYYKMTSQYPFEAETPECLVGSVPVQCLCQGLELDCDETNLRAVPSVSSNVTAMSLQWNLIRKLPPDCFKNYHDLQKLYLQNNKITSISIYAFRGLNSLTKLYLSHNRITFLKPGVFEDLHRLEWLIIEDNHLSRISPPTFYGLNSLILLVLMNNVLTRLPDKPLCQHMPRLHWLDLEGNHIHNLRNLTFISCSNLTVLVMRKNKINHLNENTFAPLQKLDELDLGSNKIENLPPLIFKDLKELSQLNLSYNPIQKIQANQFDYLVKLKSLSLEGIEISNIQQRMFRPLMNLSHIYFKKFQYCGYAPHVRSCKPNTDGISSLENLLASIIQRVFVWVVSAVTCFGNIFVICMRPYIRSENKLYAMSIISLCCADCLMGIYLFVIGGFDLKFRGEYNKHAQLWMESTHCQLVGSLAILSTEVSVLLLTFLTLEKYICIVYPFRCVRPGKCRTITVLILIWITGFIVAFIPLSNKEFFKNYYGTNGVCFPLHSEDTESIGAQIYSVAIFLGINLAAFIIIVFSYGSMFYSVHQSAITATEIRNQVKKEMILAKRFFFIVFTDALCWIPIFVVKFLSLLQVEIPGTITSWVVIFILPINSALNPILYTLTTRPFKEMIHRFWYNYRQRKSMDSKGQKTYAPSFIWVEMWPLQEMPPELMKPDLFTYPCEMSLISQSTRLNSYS
In words: OVCAR5 cAMP assay (HTRF), RXFP1 agonist activity. The assay is classed as cell-based. The settings on record: for Emax: OVCAR-5, maximal cAMP relative to H2-relaxin maximum (100%), read-out: EMax, OVCAR 5 cells (cAMP); for EC50: OVCAR5 cells, cAMP HTRF, read-out: EC50 (nM), OVCAR 5 cells (cAMP). The gist of the method: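 OVCAR5 cells (endogenous RXFP1) pretreated 40 min at 37° C with 1 mM IBMX, then exposed to peptides in serum-free medium for 30 min at 37° C. Lysate cAMP read by HTRF; EC50 from variable-slope sigmoidal fit; Emax as % of H2-relaxin maximal cAMP in same run.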
A general note: Changes in cAMP serve as a functional read-out for many G protein-coupled receptors.

A word on the Emax: it is the size of the effect at its maximum, as opposed to the concentration needed. In the case of `CCCCCCCCCCCCCCCC(=O)N[C@@H](CCC(=O)N[C@@H](CCC(=O)N[C@@H](CCC(=O)N[C@@H](CCC(=O)NCCOCCOCC(=O)NCCOCCOCC(=O)NCCOCCOCC(=O)NCCOCCOCC(=O)NCCCC[C@H](NC(=O)[C@H](CCCCNC(C)=O)NC(=O)[C@H](CCCCN)NC(=O)[C@H](CCCNC(=N)N)NC(=O)C(C)(C)NC(=O)[C@H](CO)NC(=O)[C@H](Cc1ccccc1)NC(=O)[C@@H](NC(=O)[C@H](CO)NC(=O)[C@H](CCCC)NC(=O)CNC(=O)[C@H](CCC(=O)O)NC(=O)C(C)(C)NC(=O)C(C)(C)NC(=O)[C@@H](NC(=O)[C@H](CCCCNC(C)=O)NC(=O)[C@H](C)NC(=O)[C@H](CCCNC(=N)N)NC(=O)[C@@H](NC(=O)[C@H](CCCCN)NC(=O)[C@H](CCC(=O)O)NC(=O)[C@H](CCCNC(=N)N)NC(=O)CNC(=O)[C@H](CCC(=O)O)NC(=O)[C@H](CC(C)C)NC(C)=O)C(C)C)[C@@H](C)CC)[C@@H](C)O)C(N)=O)C(=O)O)C(=O)O)C(=O)O)C(=O)O` [compound 147] (Ac-LEGREKVRAK(Ac)I[Aib][Aib]EG[Nle]STFS[Aib]RKK(Ac)K([AEEA-AEEA-AEEA-AEEA-γGlu-γGlu-γGlu-γGlu-Palmitoyl])-NH2), the Emax turned out to be 86%.
In the case of `CCCCCCCCCCCCCCCCCC(=O)N[C@@H](CCC(=O)N[C@@H](CCC(=O)N[C@@H](CCC(=O)NCCCOCCOCCOCCCNC(=O)COCC(=O)NCCCOCCOCCOCCCNC(=O)COCC(=O)NCCCOCCOCCOCCCNC(=O)COCC(=O)NCCCC[C@H](NC(=O)[C@H](CCCCNC(C)=O)NC(=O)[C@H](CCCCN)NC(=O)[C@H](CCCNC(=N)N)NC(=O)C(C)(C)NC(=O)[C@H](CO)NC(=O)[C@H](Cc1c[nH]c2ccccc12)NC(=O)[C@@H](NC(=O)[C@H](CO)NC(=O)[C@H](CCCC)NC(=O)CNC(=O)[C@H](CCC(=O)O)NC(=O)C(C)(C)NC(=O)C(C)(C)NC(=O)[C@@H](NC(=O)[C@H](CCCCNC(C)=O)NC(=O)[C@H](C)NC(=O)[C@H](CCCNC(=N)N)NC(=O)[C@@H](NC(=O)[C@H](CCCCN)NC(=O)[C@H](CCC(=O)O)NC(=O)[C@H](CCCNC(=N)N)NC(=O)CNC(=O)[C@H](CCC(=O)O)NC(=O)[C@H](CC(C)C)NC(C)=O)C(C)C)[C@@H](C)CC)[C@@H](C)O)C(N)=O)C(=O)O)C(=O)O)C(=O)O` [compound 96] (Ac-LEGREKVRAK(Ac)I[Aib][Aib]EG[Nle]STWS[Aib]RKK(Ac)K(X15)-NH2), the Emax worked out at 89%.
In the case of `CCCCCCCCCCCCCCCC(=O)N[C@@H](CCC(=O)N[C@@H](CCC(=O)N[C@@H](CCC(=O)NCCOCCOCC(=O)NCCOCCOCC(=O)NCCCC[C@H](NC(=O)[C@H](CCCCNC(C)=O)NC(=O)[C@H](CCCCN)NC(=O)[C@H](CCCNC(=N)N)NC(=O)C(C)(C)NC(=O)[C@H](CO)NC(=O)[C@H](Cc1c[nH]c2ccccc12)NC(=O)[C@@H](NC(=O)[C@H](CO)NC(=O)[C@H](CCCC)NC(=O)CNC(=O)[C@H](CCC(=O)O)NC(=O)C(C)(C)NC(=O)C(C)(C)NC(=O)[C@@H](NC(=O)[C@H](CCCCNC(C)=O)NC(=O)[C@H](C)NC(=O)[C@H](CCCNC(=N)N)NC(=O)[C@@H](NC(=O)[C@H](CCCCN)NC(=O)[C@H](CCC(=O)O)NC(=O)[C@H](CCCNC(=N)N)NC(=O)CNC(=O)[C@H](CCC(=O)O)NC(=O)[C@H](CC(C)C)NC(C)=O)C(C)C)[C@@H](C)CC)[C@@H](C)O)C(N)=O)C(=O)O)C(=O)O)C(=O)O` [compound 62] (Ac-LEGREKVRAK(Ac)I[Aib][Aib]EG[Nle]STWS[Aib]RKK(Ac)K([AEEA-AEEA-γGlu-γGlu-γGlu-Palmitoyl])-NH2), the Emax amounted to 87%.
One may read the EC50 as the concentration needed to bring the measured effect to its halfway point. For `CCCCCCCCCCCCCCCC(=O)N[C@@H](CCC(=O)NCCCC[C@H](NC(=O)CC[C@H](NC(=O)CC[C@H](NC(=O)CC[C@H](NC(=O)COCCOCCNC(=O)COCCOCCNC(=O)COCCOCCNC(=O)COCCOCCNC(=O)[C@H](CCCCNC(C)=O)NC(=O)[C@H](C)NC(=O)[C@H](CCCNC(=N)NC)NC(=O)[C@](C)(CCCCN)NC(=O)[C@H](CO)NC(=O)[C@H](Cc1ccccc1)NC(=O)[C@@H](NC(=O)[C@H](CO)NC(=O)[C@H](CCCC)NC(=O)CNC(=O)[C@H](CCC(=O)O)NC(=O)C(C)(C)NC(=O)C(C)(C)NC(=O)[C@@H](NC(=O)[C@H](CCCCNC(C)=O)NC(=O)[C@H](C)NC(=O)[C@H](CCCNC(=N)N)NC(=O)[C@@H](NC(=O)[C@H](CCCCN)NC(=O)[C@H](CCC(=O)O)NC(=O)[C@H](CCCNC(=N)N)NC(=O)CNC(=O)[C@H](CCC(=O)O)NC(=O)[C@H](CC(C)C)NC(C)=O)C(C)C)[C@@H](C)CC)[C@@H](C)O)C(=O)O)C(=O)O)C(=O)O)C(N)=O)C(=O)O` [compound 151] (Ac-LEGREKVRAK(Ac)I[Aib][Aib]EG[Nle]STFS[αMeK][Arg(Me)]AK(Ac)[AEEA][AEEA][AEEA][AEEA][γGlu][γGlu][γGlu]K([γGlu-Palmitoyl])-NH2), the half-maximal effective concentration (EC50) came out at 0.14 nM and the maximum response (Emax) came out at 90%.
As for `CCCCCCCCCCCCCCCC(=O)N[C@@H](CCC(=O)NCCCC[C@H](NC(=O)CC[C@H](NC(=O)CC[C@H](NC(=O)CC[C@H](NC(=O)CCC(=O)NCCCOCCOCCOCCCNC(=O)CCC(=O)NCCCOCCOCCOCCCNC(=O)CCC(=O)NCCCOCCOCCOCCCNC(=O)[C@H](CCCCNC(C)=O)NC(=O)[C@H](C)NC(=O)[C@H](CCCNC(=N)N)NC(=O)[C@](C)(CCCCN)NC(=O)[C@H](CO)NC(=O)[C@H](Cc1ccccc1)NC(=O)[C@@H](NC(=O)[C@H](CO)NC(=O)[C@H](CCCC)NC(=O)CNC(=O)[C@H](CCC(=O)O)NC(=O)C(C)(C)NC(=O)C(C)(C)NC(=O)[C@@H](NC(=O)[C@H](CCCCNC(C)=O)NC(=O)[C@H](C)NC(=O)[C@H](CCCNC(=N)N)NC(=O)[C@@H](NC(=O)[C@H](CCCCN)NC(=O)[C@H](CCC(=O)O)NC(=O)[C@H](CCCNC(=N)N)NC(=O)CNC(=O)[C@H](CCC(=O)O)NC(=O)[C@H](CC(C)C)NC(C)=O)C(C)C)[C@@H](C)CC)[C@@H](C)O)C(=O)O)C(=O)O)C(=O)O)C(N)=O)C(=O)O` [compound 193] (Ac-LEGREKVRAK(Ac)I[Aib][Aib]EG[Nle]STFS[αMeK]RAK(Ac)-X11), the EC50 is 0.2 nM and the Emax was found to be 100%.
Consider `CCCCCCCCCCCCCCCCCC(=O)N[C@@H](CCC(=O)N[C@@H](CCC(=O)N[C@@H](CCC(=O)N[C@@H](CCC(=O)NCCOCCOCC(=O)NCCOCCOCC(=O)NCCOCCOCC(=O)NCCCC[C@H](NC(=O)[C@H](CCCCNC(C)=O)NC(=O)[C@H](CCCC[N+](C)(C)C)NC(=O)[C@H](CCCNC(=N)NC)NC(=O)[C@](C)(CCCCN)NC(=O)[C@H](CO)NC(=O)[C@H](Cc1c[nH]c2ccccc12)NC(=O)[C@@H](NC(=O)[C@H](CO)NC(=O)[C@H](CCCC)NC(=O)CNC(=O)[C@H](CCC(=O)O)NC(=O)C(C)(C)NC(=O)C(C)(C)NC(=O)[C@@H](NC(=O)[C@H](CCCCNC(C)=O)NC(=O)[C@H](C)NC(=O)[C@H](CCCNC(=N)N)NC(=O)[C@@H](NC(=O)[C@H](CCCCN)NC(=O)[C@H](CCC(=O)O)NC(=O)[C@H](CCCNC(=N)N)NC(=O)CNC(=O)[C@H](CCC(=O)O)NC(=O)[C@H](CC(C)C)NC(C)=O)C(C)C)[C@@H](C)CC)[C@@H](C)O)C(N)=O)C(=O)O)C(=O)O)C(=O)O)C(=O)O` [compound 138] (Ac-LEGREKVRAK(Ac)I[Aib][Aib]EG[Nle]STWS[αMeK][Arg(Me)][Lys(Me3)]K(Ac)K([AEEA-AEEA-AEEA-γGlu-γGlu-γGlu-γGlu-Stearoyl])-NH2), for which the maximal effect (Emax) is 91%.
For `CCCCCCCCCCCCCCCCCC(=O)N[C@@H](CCC(=O)N[C@@H](CCC(=O)N[C@@H](CCC(=O)NCCOCCOCC(=O)NCCOCCOCC(=O)NCCOCCOCC(=O)NCCCC[C@H](NC(=O)[C@H](CCCCN)NC(=O)[C@H](CCCCN)NC(=O)[C@H](CCCNC(=N)N)NC(=O)C(C)(C)NC(=O)[C@H](CO)NC(=O)[C@H](Cc1c[nH]c2ccccc12)NC(=O)[C@@H](NC(=O)[C@H](CO)NC(=O)[C@H](CCCC)NC(=O)CNC(=O)[C@H](CCC(=O)O)NC(=O)C(C)(C)NC(=O)C(C)(C)NC(=O)[C@@H](NC(=O)[C@H](CCC(N)=O)NC(=O)[C@H](C)NC(=O)[C@H](CCCNC(=N)N)NC(=O)[C@@H](NC(=O)[C@H](CCCCN)NC(=O)[C@H](CCC(=O)O)NC(=O)[C@H](CCCNC(=N)N)NC(=O)CNC(=O)[C@H](CCC(=O)O)NC(=O)[C@H](CC(C)C)NC(C)=O)C(C)C)[C@@H](C)CC)[C@@H](C)O)C(N)=O)C(=O)O)C(=O)O)C(=O)O` [compound 75] (Ac-LEGREKVRAQI[Aib][Aib]EG[Nle]STWS[Aib]RKKK([AEEA-AEEA-AEEA-γGlu-γGlu-γGlu-Stearoyl])-NH2), the EC50 was 0.07 nM and the maximal response (Emax) came out at 88%.
